Test results from US20260364168A1, “USE OF PROTEIN KINASE C (PKC) ACTIVATING COMPOUNDS AS AN ADJUVANT” (priority 2022, published 2026).
Like-named read-outs stand apart in the source and are kept apart here.

Tested on: human PBMC cells
Assay: cytokine/chemokine gene expression (TaqMan) in human PBMC
Conditions: Homo sapiens, PBMC, 4 h
Method: Materials and methods: 100 million frozen human PBMC cells were purchased from Allcells (100 million/vial). The cells were thawed and recovered for one day before 1.5-1.8 million cells in 900 μl RPMI1640 with 10% heat-inactivated FBS were seeded in each well of 24-well plates. Various compounds in DMSO stock (500×) were diluted 50-fold with the same media to make 10× compound stock for most compounds. 1 μL of 5 mg/mL PMA was diluted to 99 μL of the media to make 50 μg/mL PMA. For PMA with ionomycin treatment condition, 1.5 μL of 50 μg/mL PMA and 3 μL of 500 μg/mL ionomycin were added to 145.5 μL of the media to make 10× compound stock. Sources of the compounds are as follows: PMA from Abcam (Abcam #ab120297); Ionomycin from Sigma (Sigma #I0634); Resiquimod from Sellect Chem. (Selleckchem #S8133); and LPS from Sigma (Sigma #L6143).
Each treatment condition was performed in duplicates. After treatment, mRNA was extracted from cells and samples from duplicates were combined for TaqMan gene expression assays (ThermoFisher) in triplicates. Expression of 19 genes (IL-1β, IL-2, IL-4, IL-6, IL-8, IL-10, IL-13, IL-18, IL-12p70/IL-12A, IL-12p40/IL-12B, IFN-α, IFN-γ, GM-CSF/CSF2, CCL2/MCP-1, MIP1a/CCL3, TNF-α, MX1, OAS1, ISG15) along with two housekeeping gene controls, 18S and GAPDH, was determined. Target gene expression in each sample was determined by relative quantification (RQ) using the comparative Ct (ΔΔCT) method. This method measures the Ct difference (ΔCT) between target gene and the housekeeping genes (18S & GAPDH), then compares the ΔCT values of treated samples to DMSO-treated control samples. The mean ΔCT value of the DMSO-treated control from two independent DMSO-treated control samples was used. The relative expression level of target gene was calculated by using the equation:
relative expression=2^−ΔΔCT

## CC1=C[C@H]2[C@@]3(O)[C@H](C)C[C@]4(OC(=O)[C@@H](N)[C@]56C[C@H]7C[C@H](C[C@H](C7)C5)C6)[C@H]([C@@H]3C=C(CO)C[C@]2(O)C1=O)C4(C)C
read-out: CCL2 gene relative expression, 0.01 μM, 4 h, vs DMSO
  fold induction at 0.01 µM: 5.58
read-out: CCL2 gene relative expression, 0.03 μM, 4 h, vs DMSO
  fold induction at 0.03 µM: 3.59
read-out: CCL2 gene relative expression, 0.10 μM, 4 h, vs DMSO
  fold induction at 0.1 µM: 0.38
read-out: GM-CSF gene relative expression, 0.01 μM, 4 h, vs DMSO
  fold induction at 0.01 µM: 1.59
read-out: GM-CSF gene relative expression, 0.03 μM, 4 h, vs DMSO
  fold induction at 0.03 µM: 8.38
read-out: GM-CSF gene relative expression, 0.10 μM, 4 h, vs DMSO
  fold induction at 0.1 µM: 16.1
read-out: IFN-α gene relative expression, 0.01 μM, 4 h, vs DMSO
  fold induction at 0.01 µM: 0.78
read-out: IFN-α gene relative expression, 0.03 μM, 4 h, vs DMSO
  fold induction at 0.03 µM: 0.46
read-out: IFN-α gene relative expression, 0.10 μM, 4 h, vs DMSO
  fold induction at 0.1 µM: 0.31
read-out: IFNγ gene relative expression, 0.01 μM, 4 h, vs DMSO
  fold induction at 0.01 µM: 1.69
read-out: IFNγ gene relative expression, 0.03 μM, 4 h, vs DMSO
  fold induction at 0.03 µM: 3.82
read-out: IFNγ gene relative expression, 0.10 μM, 4 h, vs DMSO
  fold induction at 0.1 µM: 18.1
read-out: IL-1β gene relative expression, 0.01 μM, 4 h, vs DMSO
  fold induction at 0.01 µM: 0.59
read-out: IL-1β gene relative expression, 0.03 μM, 4 h, vs DMSO
  fold induction at 0.03 µM: 2.26
read-out: IL-1β gene relative expression, 0.10 μM, 4 h, vs DMSO
  fold induction at 0.1 µM: 3
read-out: IL-2 gene relative expression, 0.01 μM, 4 h, vs DMSO
  fold induction at 0.01 µM: 3.06
read-out: IL-2 gene relative expression, 0.03 μM, 4 h, vs DMSO
  fold induction at 0.03 µM: 7.78
read-out: IL-2 gene relative expression, 0.10 μM, 4 h, vs DMSO
  fold induction at 0.1 µM: 3.29
read-out: IL-4 gene relative expression, 0.01 μM, 4 h, vs DMSO
  fold induction at 0.01 µM: 0.84
read-out: IL-4 gene relative expression, 0.03 μM, 4 h, vs DMSO
  fold induction at 0.03 µM: 2.54
read-out: IL-4 gene relative expression, 0.10 μM, 4 h, vs DMSO
  fold induction at 0.1 µM: 2.77
read-out: IL-6 gene relative expression, 0.01 μM, 4 h, vs DMSO
  fold induction at 0.01 µM: 1.17
read-out: IL-6 gene relative expression, 0.03 μM, 4 h, vs DMSO
  fold induction at 0.03 µM: 0.86
read-out: IL-6 gene relative expression, 0.10 μM, 4 h, vs DMSO
  fold induction at 0.1 µM: 6.72
read-out: IL-8 gene relative expression, 0.01 μM, 4 h, vs DMSO
  fold induction at 0.01 µM: 0.71
read-out: IL-8 gene relative expression, 0.03 μM, 4 h, vs DMSO
  fold induction at 0.03 µM: 0.54
read-out: IL-8 gene relative expression, 0.10 μM, 4 h, vs DMSO
  fold induction at 0.1 µM: 0.6
read-out: IL-10 gene relative expression, 0.01 μM, 4 h, vs DMSO
  fold induction at 0.01 µM: 1.12
read-out: IL-10 gene relative expression, 0.03 μM, 4 h, vs DMSO
  fold induction at 0.03 µM: 0.41
read-out: IL-10 gene relative expression, 0.10 μM, 4 h, vs DMSO
  fold induction at 0.1 µM: 0.09
read-out: IL-12p40 gene relative expression, 0.01 μM, 4 h, vs DMSO
  fold induction at 0.01 µM: 0.89
read-out: IL-12p40 gene relative expression, 0.03 μM, 4 h, vs DMSO
  fold induction at 0.03 µM: 0.32
read-out: IL-12p40 gene relative expression, 0.10 μM, 4 h, vs DMSO
  fold induction at 0.1 µM: 0.22
read-out: IL-12p70 gene relative expression, 0.01 μM, 4 h, vs DMSO
  fold induction at 0.01 µM: 1.03
read-out: IL-12p70 gene relative expression, 0.03 μM, 4 h, vs DMSO
  fold induction at 0.03 µM: 0.87
read-out: IL-12p70 gene relative expression, 0.10 μM, 4 h, vs DMSO
  fold induction at 0.1 µM: 0.76
read-out: IL-13 gene relative expression, 0.01 μM, 4 h, vs DMSO
  fold induction at 0.01 µM: 3.1
read-out: IL-13 gene relative expression, 0.03 μM, 4 h, vs DMSO
  fold induction at 0.03 µM: 52.6
read-out: IL-13 gene relative expression, 0.10 μM, 4 h, vs DMSO
  fold induction at 0.1 µM: 101
read-out: IL-18 gene relative expression, 0.01 μM, 4 h, vs DMSO
  fold induction at 0.01 µM: 0.26
read-out: IL-18 gene relative expression, 0.03 μM, 4 h, vs DMSO
  fold induction at 0.03 µM: 0.06
read-out: IL-18 gene relative expression, 0.10 μM, 4 h, vs DMSO
  fold induction at 0.1 µM: 0.06
read-out: ISG15 gene relative expression, 0.01 μM, 4 h, vs DMSO
  fold induction at 0.01 µM: 1.01
read-out: ISG15 gene relative expression, 0.03 μM, 4 h, vs DMSO
  fold induction at 0.03 µM: 1.33
read-out: ISG15 gene relative expression, 0.10 μM, 4 h, vs DMSO
  fold induction at 0.1 µM: 1.54
read-out: MIP1a (CCL3) gene relative expression, 0.01 μM, 4 h, vs DMSO
  fold induction at 0.01 µM: 1.65
read-out: MIP1a (CCL3) gene relative expression, 0.03 μM, 4 h, vs DMSO
  fold induction at 0.03 µM: 2.82
read-out: MIP1a (CCL3) gene relative expression, 0.10 μM, 4 h, vs DMSO
  fold induction at 0.1 µM: 5.73
read-out: MX1 gene relative expression, 0.01 μM, 4 h, vs DMSO
  fold induction at 0.01 µM: 0.84
read-out: MX1 gene relative expression, 0.03 μM, 4 h, vs DMSO
  fold induction at 0.03 µM: 1.01
read-out: MX1 gene relative expression, 0.10 μM, 4 h, vs DMSO
  fold induction at 0.1 µM: 0.99
read-out: OAS1 gene relative expression, 0.01 μM, 4 h, vs DMSO
  fold induction at 0.01 µM: 0.74
read-out: OAS1 gene relative expression, 0.03 μM, 4 h, vs DMSO
  fold induction at 0.03 µM: 0.78
read-out: OAS1 gene relative expression, 0.10 μM, 4 h, vs DMSO
  fold induction at 0.1 µM: 0.69
read-out: TNF-α gene relative expression, 0.01 μM, 4 h, vs DMSO
  fold induction at 0.01 µM: 2.39
read-out: TNF-α gene relative expression, 0.03 μM, 4 h, vs DMSO
  fold induction at 0.03 µM: 4.48
read-out: TNF-α gene relative expression, 0.10 μM, 4 h, vs DMSO
  fold induction at 0.1 µM: 6.25
